US5916906A, “Compositions comprising nicotinylalanine and an inhibitor of glycine conjugation or vitamin B6” (priority 1997, dated 1999)
Read-outs that look alike come from different tables or passages of the source.

Assay: Plasma nicotinamide, NAL and NAL-X levels by HPLC after i.p. nicotinylalanine with or without ASA in uninfected mice
Type: in vivo, C57BL/6 mice
Conditions: for Plasma nicotinamide (NAm) level / concentration at 2 h: mean ± S.E., N=8; for concentration at 2 h: mouse, plasma, ip, 400 mg/kg, read-out: Plasma nicotinylalanine (NAL) level
Protocol: The concentration of nicotinamide and its major metabolites were determined by comparison of peak area ratios of the unknown versus internal standard (6-methylnicotinamide, Sigma Chemical Company) to the standard curves run in control mouse blood plasma.
Mice were treated with racemic nicotinylalanine alone (400 mg/kg) or in combination with acetyl salicylic acid (ASA) at a dose of either 20 mg/kg or 100 mg/kg body weight. […] Control mice received the vehicle for the drug compositions, being phosphate buffered saline (PBS), at the same volume on the same dose schedule as the drug-treated mice. Chronic dosing was performed daily for two weeks, Monday through Friday, and one group of mice received only a single (acute) dose of nicotinylalanine. All mice were killed two hours after their final dose and blood was collected by cardiac puncture and stored on ice, until centrifugation in a microfuge at 10,000 rpm to obtain plasma.
Concentrations of nicotinamide, nicotinamide-oxide, 1-methyl-nicotinamide, and nicotinylalanine extracted from 90% methanol, dried under N2, and reconstituted in water as above were determined by comparison of the peak area ratios of the unknown vs. the internal standard to the standard curve. Concentrations of the unidentified nicotinylalanine metabolite (NAL-X) were determined in the same way as above, except peaks were compared to the standard curve for known nicotinylalanine. The results are expressed as nanomoles of nicotinamide and nicotinylalanine per ml of plasma (nmol/ml).

[1] = acute (single) NAL 400 mg/kg i.p., two hours after dose
[2] = chronic (2 Week) dosing of nicotinylalanine alone
[3] = chronic (2 weeks) NAL 400 mg/kg i.p. alone, two hours after last dose
[4] = two hours after acute i.p. 400 mg/kg NAL

## NC(CC(=O)c1cccnc1)C(=O)O (racemic) [NAL, γ-(3-pyridyl)-γ-oxo-α-aminobutyrate]
[1]
  Plasma nicotinamide (NAm) level: 7.4 ± 2.3 nmol/mL
  concentration at 2 h: 115 ± 65.6 µM
[2]
  Change in plasma nicotinylalanine levels: nearly ten-fold decrease
  Nicotinamide plasma level (in words): return to nearly baseline levels of nicotinamide
[3]
  Plasma nicotinamide (NAm) level: 4.7 ± 1.1 nmol/mL
  concentration at 2 h: 11.2 ± 4.5 µM
[4]
  Nicotinamide plasma level versus PBS-injected controls: about twice those found in PBS-injected controls
  Plasma level of NAL versus NAL-X: about twice as high
